Reference: patent US4533667A, “Imidazolidinedione derivatives” (Pfizer Inc., priority 1984, dated 1985)

What was measured:
aldose reductase = biological target: T1, aldose reductase (Bos taurus, UniProt P16116); experiment: inhibition of aldose reductase enzyme activity (partially purified enzyme from calf lens); type: biochemical; details: for inhibition at 1 µM: 10^-6 M, partially purified aldose reductase from calf lens; for aldose reductase inhibitory activity (in words): qualitative statement, no concentration given
T1 construct: partially purified aldose reductase enzyme obtained from calf lens; from tissue; host or cells: calf lens
Description: (§1) The activity of the compounds of the present invention, as agents for the control of chronic diabetic complications, is determined by their ability to successfully pass one or more of the following standard biological or pharmacological tests, viz., (1) measuring their ability to inhibit the enzyme activity of isolated aldose reductase; (2) measuring their ability to reduce or inhibit sorbitol accumulation in the sciatic nerve of acutely streptozotocinized (i.e., diabetic) rats; (3) measuring their ability to reverse already-elevated sorbitol levels in the sciatic nerve and lens of chronic streptozotocin-induced diabetic rats; (4) measuring their ability to prevent or inhibit galactitol formation in the lens of acutely galactosemic rats, and (5) measuring their ability to delay cataract formation and reduce the severity of lens opacities in chronic galactosemic rats.
The following spiro-oxindole imidazolidinedione final products of Examples 1-5, respectively, were tested at a concentration level of 10^-6 M for their ability to reduce or inhibit aldose reductase enzyme activity via the procedure of S. Hayman et al., as described in the Journal of Biological Chemistry, Vol. 240, p. 877 (1965) and as modified by K. Sestanj et al. in U.S. Pat. No. 3,821,383. In every case, the substrate employed was partially purified aldose reductase enzyme obtained from calf lens.

[1] = system: sorbitol levels in diabetic rats; experiment: inhibition of the formation of sorbitol levels in diabetic rats, oral; type: in vivo, rat; details: dose levels ranging from 0.5 mg/kg to 20 mg/kg
Excerpt: As previously indicated, the spiro-oxindole imidazolidinedione compounds of this invention are readily adapted to therapeutic use as aldose reductase inhibitors for the control of chronic diabetic complications, in view of their ability to reduce lens sorbitol levels in diabetic subjects to a statistically significant degree. […] Furthermore, the herein described compounds of this invention can be administered by either the oral or parenteral routes of administration. […]
as §1

Nc1cc(Cl)cc2c1NC(=O)C21NC(=O)NC1=O (centres unmarked) [Example 1, 5'-chloro-7'-amino-spiro-[imidazolidine-4,3'-indolidine]-2,2',5-trione]
inhibition at 1 µM (aldose reductase): 72% | aldose reductase inhibitory activity (in words) (aldose reductase): highly potent

O=C1NC(=O)C2(N1)C(=O)N(Cc1cccnc1)c1c(Cl)cc(Cl)cc12 (centres unmarked) [Example 2, 1'-(3-pyridymethyl)-5',7'-dichloro-spiro-[imidazolidine-4,3'-indoline]-2,2',5-trione]
inhibition at 1 µM (aldose reductase): 81% | aldose reductase inhibitory activity (in words) (aldose reductase): highly potent | inhibition of the formation of sorbitol levels in diabetic rats (in words) [1]: significantly high degree

O=C1NC(=O)C2(N1)C(=O)N(Cc1cccnc1)c1ccc(F)cc12 (centres unmarked) [Example 3, 1'-(3-pyridylmethyl)-5'-fluorospiro-[imidazolidine-4,3'-indoline]-2,2',5-trione]
inhibition at 1 µM (aldose reductase): 71% | aldose reductase inhibitory activity (in words) (aldose reductase): highly potent

Nc1ccc2c(c1)NC(=O)C21NC(=O)NC1=O (centres unmarked) [Example 4, 6'-amino-spiro-[imidazolidine-4,3'-indoline]-2,2',5-trione]
inhibition at 1 µM (aldose reductase): 27% | aldose reductase inhibitory activity (in words) (aldose reductase): highly potent

O=C1NC(=O)C2(N1)C(=O)Nc1cnccc12 (centres unmarked) [Example 5, spiro-[imidazolidine-4,3'-(6-azaindoline)]-2,2',5-trione]
inhibition at 1 µM (aldose reductase): 49% | aldose reductase inhibitory activity (in words) (aldose reductase): highly potent
